Assay results published in paper PMC9664868, “Dephospho-Coenzyme A Kinase Is an Exploitable Drug Target against Plasmodium falciparum: Identification of Selective Inhibitors by High-Throughput Screening of a Large Chemical Compound Library” (Antimicrobial Agents and Chemotherapy, 2022).

Legend:
[1] = target: PfDPCK (Plasmodium falciparum, UniProt Q8IL34); assay: PfDPCK inhibition, enzyme-coupled fluorescence ADP detection assay (HTS and IC50 determination); type: biochemical; conditions: Table 2, PfDPCK inhibitor scaffolds Gr4, Gr5, Gr8; read-out: IC50
PfDPCK, sequence (Q8IL34 entry or part of it): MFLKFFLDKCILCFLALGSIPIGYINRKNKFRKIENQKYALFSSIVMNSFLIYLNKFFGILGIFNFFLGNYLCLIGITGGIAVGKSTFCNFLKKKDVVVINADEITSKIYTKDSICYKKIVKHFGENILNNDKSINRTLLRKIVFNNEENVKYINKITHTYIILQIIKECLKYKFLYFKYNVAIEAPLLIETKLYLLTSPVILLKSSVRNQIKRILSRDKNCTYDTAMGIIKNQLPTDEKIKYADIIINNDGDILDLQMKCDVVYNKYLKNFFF
Procedure: High-throughput screening against recombinant PfDPCK was performed using the Drug Discovery Initiative (DDI) full library, available from The University of Tokyo, composed of approximately 210,000 compounds. The primary assay was performed on 1,536-well white plate format with a final volume of 2 μL/well, containing 10 μM test compounds using a Multidrop Combi reagent dispenser (Thermo Fisher Scientific, Waltham, MA). The reaction was conducted in the assay buffer described above with 100 μM ATP and 50 μM dephospho-CoA. The assay was carried out at room temperature for 4 h in a closed plastic container with wet tissues. The reaction was stopped, and produced ADP was quantified using an enzyme-coupled fluorescence ADP detection assay, using PHERAstar microplate reader (BMG Labtech, Offenburg, Germany) with excitation at 540 nm and emission at 590 nm, as previously described ([17]). The inhibition level was calculated as the percentage inhibition of DPCK activity with each compound compared to the activity with only dimethyl sulfoxide (DMSO) as control (no inhibition) and that with no enzyme as 100% inhibition. IC50 values of the hit compounds were determined under the same assay conditions for the screening: Z′ factor, signal-to-background ratio (S/B), signal-to-noise ratio (S/N), and coefficient of variation (CV) were calculated to estimate the quality of screening system as previously described ([18], [38]).
The primary hits were reassayed in quadruplicate (n = 4) as in the primary screening. We next tested the confirmed secondary hits to exclude false positives that inhibit coupled fluorescence assay, but not PfDPCK. After exclusion of false positives, all tertiary hits were tested against human HsCOASY in the counterassay to exclude compounds that inhibit both PfDPCK and HsCOASY. The compounds showing >10% inhibition against HsCOASY were excluded from further studies. The IC50 values of the hit compounds were determined under the same assay conditions described as above for the primary screening, with the serially diluted compounds at 20, 10, 2.5, 0.5, and 0.1 μM at final concentrations. The assay was conducted in quadruplicate for each dilution, and IC50 values were calculated using GraphPad Software (San Diego, California USA).

[2] = target: T1, HsCOASY (Homo sapiens, UniProt Q13057); assay: HsCOASY counterassay; type: biochemical; conditions: reciprocal plot analysis
T1 construct: His tag (pCold1 vector); made in house; host or cells: Escherichia coli BL21Star (DE3)
T1 sequence (Q13057 1-564): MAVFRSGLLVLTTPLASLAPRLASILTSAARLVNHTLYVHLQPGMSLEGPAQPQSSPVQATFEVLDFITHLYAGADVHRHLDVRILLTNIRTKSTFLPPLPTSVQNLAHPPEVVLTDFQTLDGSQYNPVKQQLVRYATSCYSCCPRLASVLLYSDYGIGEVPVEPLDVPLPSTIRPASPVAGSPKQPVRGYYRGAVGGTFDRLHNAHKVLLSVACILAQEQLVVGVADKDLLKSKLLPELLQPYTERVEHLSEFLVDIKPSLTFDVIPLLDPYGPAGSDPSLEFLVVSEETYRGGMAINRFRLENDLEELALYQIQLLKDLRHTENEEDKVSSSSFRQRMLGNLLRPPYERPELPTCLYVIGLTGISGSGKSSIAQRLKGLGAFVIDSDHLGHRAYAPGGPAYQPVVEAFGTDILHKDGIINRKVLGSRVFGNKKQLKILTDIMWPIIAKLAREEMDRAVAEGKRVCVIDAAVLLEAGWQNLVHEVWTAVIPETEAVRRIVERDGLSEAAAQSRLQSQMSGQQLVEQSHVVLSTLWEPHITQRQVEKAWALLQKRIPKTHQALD
Procedure: PfDPCK and HsCOASY activity was measured by quantifying ADP produced in the reaction by a coupling assay using the ADP Hunter Plus assay kit (DiscoverX, USA) according to the manufacturer's instructions. Briefly, enzymatic reactions were carried out in a 20-μL mixture of assay buffer containing 15 mM HEPES, 20 mM NaCl, 1 mM EGTA, 0.02% Tween 20, 10 mM MgCl2, 0.1% bovine gamma globulin, 50 ng of recombinant PfDPCK or HsCOASY, 4 to 256 μM dephospho-CoA, and 5 to 300 μM ATP on a black microplate. All reactions were performed for 2 h, reagents A and B were added, and they were then reincubated for 60 min at 30°C. After reactions were terminated by addition of ADP Hunter Stop solution, the fluorescent signal was measured using SpectraMax Paradigm (Molecular Devices, CA, USA) at excitation and emission wavelengths of 530 and 590 nm, respectively. The kinetic parameters were calculated using the nonlinear regression function using the single saturating concentrations of the substrates by the GraphPad Prism software (GraphPad Software Inc., San Diego, CA). The experiments were repeated three times in triplicate using proteins purified from independent cultures. […]
The primary hits were reassayed in quadruplicate (n = 4) as in the primary screening. We next tested the confirmed secondary hits to exclude false positives that inhibit coupled fluorescence assay, but not PfDPCK. […]

IC50 [1]: 1930 ± 40 nM | inhibition of HsCOASY [2]: inhibits PfDPCK, but not HsCOASY
SMILES: CC(C)(C)c1cc(C(=O)Cn2c(NCCO)nc3ccccc32)cc(C(C)(C)C)c1O [Compound A-15]
